Test results: patent publication US12466779B2, “Method for obtaining oleacein and oleomissional type secoiridoids and for producing respective pharmaceutical preparations” (OMPHAX SA, priority 2019, dated 2025)

Tests used:
[1] = storage stability of solutions and syrups; type: physicochemical; conditions: at room temperature; oleacein (1 g) in PEG200 or PEG 400 (5 ml)
Procedure: Dried olive leaves of Kalamata variety (10 kg) with 1% moisture are cut in the presence of water (100 L) at 25° C. and left in contact for 30 min. The mixture is filtered and the aqueous phase is obtained. The aqueous solution is extracted with dichloromethane (80 L) and the dichloromethane layer is obtained and evaporated under vacuum at 30° C. The residue (100 g) is made up of oleacein with a purity of 95%. The oleacein is mixed with water (10 L) under vigorous stirring for 30 min and transformed into a pure oleaceinediol solution. Alternatively, oleacein (1 g) is mixed with PEG200 or PEG 400 (5 ml) and converted into the stable polyethylene glycol hemiacetal. This solution is stable at room temperature for 12 months. This solution can be diluted to 100 ml with a saturated sugar solution affording a syrup containing 1% oleaceinediol, stable for 15-30 days with anti-inflammatory use.
Fresh olive leaves of Koroneiki variety (100 g) are left in contact with dichloromethane (500 g) at 25° C. for 30 min. The mixture is filtered and the organic phase is evaporated under vacuum. The residue is dissolved in deionized and distilled water at pH=6 (100 ml) under stirring for 24 hours, filtered and a solution of pure oleomissional is obtained. The solution is evaporated or lyophilized and oleomissional (160 mg) is obtained with a purity of >95%. […]

[2] = water solubility; type: physicochemical; conditions: in comparison with the aldehydic forms (1)
[3] = system: MCF-7 cancer cells; test: cytotoxic activity on MCF-7 cancer cells; type: cell-based; conditions: read-out: concentration leading to death of 50% of cells
[4] = system: HeLa cancer cells; test: cytotoxic activity on HeLa cancer cells; type: cell-based; conditions: read-out: concentration leading to death of 50% of cells

Substance | time stable [1] | water solubility with respect to substances (1), (2) [2] | IC50 [3] | IC50 [4]
polyethylene glycol hemiacetal of oleacein | 12 months |  |  | 
5S-(E)-oleaceinediol |  | greatly increased water solubility | 5 µM | 5 µM
5S-(E)-oleomissionadiol |  | greatly increased water solubility | 50 µM | 50 µM
